This is an account of results in patent publication EP1660440B1, “ACYLOXYALKYL CARBAMATE PRODRUGS, METHODS OF SYNTHESIS AND USE” (priority 2003, dated 2005).

The conditions of data set [1]: human, in vivo; cited from earlier work.
The nature of data set [2]: in vitro. The settings on record: human, caco-2 homogenate s9.
Description: For stability studies, prodrug (5 µM) was incubated in Caco-2 homogenate S9 fraction (0.5 mg protein per mL) for 60 min at 37°C. Concentrations of intact prodrug and released baclofen were determined at zero time and 60 minutes using LC/MS/MS.
The next data set is described as follows: Pancreatin stability. Type of data set: in vitro ADME, porcine. The settings on record: pig, 5 µM, pH 7.5, 37 °C, after 60 min; for metabolised at 1 h, 5 µM: pancreatin, pH 7.5, 1 % (w/v) pancreatin, read-out: % of Baclofen Released; for remaining at 1 h, 5 µM: 1 % (w/v) pancreatin, read-out: % of Prodrug Remaining. On the procedure:
Pancreatin Stability: Stability studies were conducted by incubating prodrug (5 µM) with 1 % (w/v) pancreatin (Sigma, P-1625, from porcine pancreas) in 0.025 M Tris buffer containing 0.5 M NaCl (pH 7.5) at 37 °C for 60 min. The reaction was stopped by addition of 2 volumes of methanol. After centrifugation at 14,000 rpm for 10 min, the supernatant was removed and analyzed by LC/MS/MS.

Data set [3] can be described thus: Caco-2 cellular permeability of prodrugs. The settings on record: human.
Description: (§1) For example, cellular permeability may be evaluated by examining the flux of a prodrug across a cultured polarized cell monolayer (e.g., Caco-2 cells). Caco-2 cells obtained from continuous culture (passage less than 28) were seeded at high density onto Transwell polycarbonate filters. Cells were maintained with DMEM / 10% fetal calf serum + 0.1 mM nonessential amino acids + 2 mM L-Gln, 5% CO2/ / 95% O2, 37°C until the day of the experiment. Permeability studies were conducted at pH 6.5 apically (in 50 mM MES buffer containing 1 mM CaCl2, 1mM MgCl2, 150 mM NaCl, 3 mM KCl, 1 mM NaH2PO4, 5 mM glucose) and pH 7.4 basolaterally (in Hanks' balanced salt solution containing 10 mM HEPES) in the presence of efflux pump inhibitors (250 µM MK-571, 250 µM Verapamil, 1 mM Ofloxacin). Inserts were placed in 12 or 24 well plates containing buffer and incubated for 30 min at 37C°. Prodrug (200 µM) was added to the apical or basolateral compartment (donor) and concentrations of prodrug and/or released parent drug in the opposite compartment (receiver) were determined at intervals over 1 hour using LC/MS/MS. Values of apparent permeability (Papp) were calculated using the equation: Papp = Vr (dC/dt)//(ACo) [formula]
(§2) Here Vr is the volume of the receiver compartment in mL; dC/dt is the total flux ofprodrug and parent drug (µM/s), determined from the slope of the plot of concentration in the receiver compartment versus time; Co is the initial concentration of prodrug in µM; A is the surface area of the membrane in cm^2.
Data set [4] in a line: in vitro. As to conditions: rat; for metabolised at 1 h, 2 µM: liver s9; for remaining at 1 h, 2 µM: liver s9, % of Prodrug Remaining.
Description: (§3) The stabilities of prodrugs were evaluated in one or more in vitro systems using a variety of tissue preparations following methods known in the art. The chemical stability of prodrugs in aqueous buffers at pH's of 2.0, 7.4 and 8.0 were also measured. […] Each preparation was incubated with test compound at 37°C for one hour. Aliquots (50 µL) were removed at 0, 30, and 60 min and quenched with 0.1 % trifluoroacetic acid in acetonitrile.
Data set [5] in a line: in vitro. As to conditions: rat, plasma.
Description: as §3
Data set [6] can be described thus: in vitro. The settings on record: human, plasma, % of Baclofen Released.
Description: as §3
Data set [7] is described as follows: in vitro. As to conditions: human; for metabolised at 1 h, 2 µM: liver s9; for remaining at 1 h, 2 µM: liver s9, % of Prodrug Remaining.
Description: as §3
A further data set deals with Caco-2 cells. The settings on record: human, Caco-2, 200 uM.
A further data set is described as follows: physchem. The settings on record: aqueous buffer.
The format of data set [8] is in vivo. The settings on record: cynomolgus monkeys, intravenous bolus, 1.2 mg/kg. On the procedure: R-Baclofen hydrochloride salt was administered to four male cynomolgus monkeys as an aqueous solution by intravenous bolus injection into the saphenous vein at a dose of 1.2 mg/kg. Blood samples were obtained from all animals at intervals over 24 hours post-dosing. Blood was processed immediately for plasma at 4°C. All plasma samples were subsequently analyzed for R-baclofen using the LC/MS/MS assay described above. The mean R-baclofen exposure AUCinf = 3.6 h.µg/mL.

Description for Caco-2 cells: as §1, §2
Description for physchem: as §3

As to `NCC(CC(=O)O)c1ccc(Cl)cc1` (racemic) [Baclofen, (±)-4-Amino-3-(4-chlorophenyl)butanoic acid], the elimination half-life in [1] was 3 to 4 h.

`CCCC(=O)OC(OC(=O)NC[C@H](CC(=O)O)c1ccc(Cl)cc1)C(C)C` (some centres unmarked) [(27)]: the metabolised at 1 h, 5 µM in the data set “in vitro [2]” was determined as 67%; in the data set “Pancreatin stability” it was 9%. Moreover, the share remaining at 1 h, 5 µM in the data set “Pancreatin stability” is 71%. Besides, the Papp A→B at 200 µM in [3] was 65 ×10⁻⁶ cm/s. Moreover, in data set [3], the Papp B→A at 200 µM worked out at 9.4 ×10⁻⁶ cm/s. In addition, the metabolised at 1 h, 2 µM turned out to be 89% in the data set “in vitro [4]”, 88% in “in vitro [5]”, 12% in “in vitro [6]” and 79% in the data set “in vitro [7]”. The share remaining at 1 h, 2 µM worked out at 0% in “in vitro [4]” and 8% in the data set “in vitro [7]”. For the same molecule, the “Ratio A-BB-A” value in the data set with Caco-2 cells was 6.9. The degraded at 1 h in “physchem” (pH 2, % of Baclofen Released) was determined as 0%; in “physchem” (pH 7.4, % of Baclofen Released) it was 0%; in “physchem” (pH 8, % of Baclofen Released) it was 1%.

Take `CC(C)C(OC(=O)NC[C@H](CC(=O)O)c1ccc(Cl)cc1)OC(=O)C(C)(C)C` (stereo partly drawn) [(43), Sodium 4-[(1-Pivaloyloxyisobutoxy)carbonylamino]-(3R)-(4-chlophenyl)-butanoate]: the results for the metabolised at 1 h, 5 µM in the data set “in vitro [2]” and in “Pancreatin stability” were 49% and 4%, respectively. Besides, the amount remaining at 1 h, 5 µM in the data set “Pancreatin stability” was 82%. Besides, in data set [3], the Papp A→B at 200 µM came to 42 ×10⁻⁶ cm/s. Further, in data set [3], the Papp B→A at 200 µM turned out to be 18 ×10⁻⁶ cm/s. The metabolised at 1 h, 2 µM stood at 97% in “in vitro [4]”, 29% in the data set “in vitro [5]”, 2% in the data set “in vitro [6]” and 39% in the data set “in vitro [7]”. Also, the amount remaining at 1 h, 2 µM in the data set “in vitro [4]” came to 3%; in the data set “in vitro [7]”, 61%. Further, the “Ratio A-BB-A” value in the data set on Caco-2 cells is 2.3. Further, the degraded at 1 h came out at 0% in “physchem” (pH 2, % of Baclofen Released); 0% in “physchem” (pH 7.4, % of Baclofen Released); 0% in the data set “physchem” (pH 8, % of Baclofen Released).

Turning to `Cl.NC[C@H](CC(=O)O)c1ccc(Cl)cc1` [R-Baclofen hydrochloride salt], the “mean R-baclofen exposure AUCinf” value in [8] turned out to be 3600 ng·h/mL.
